Measured values published in patent US20040191171A1, “Method of detecting skin stimulation effect” (priority 2001, published 2004).

Legend:
Format in all cases: cell-based
[1] = tested on: epidermal keratinocytes; assay: Intracellular calcium ion concentration in epidermal keratinocytes after adding pain-producing substances; conditions: lactic acid present (mM range), two seconds after addition of the solution; FIG. 4
Description: (§1) (a) Commercially available epidermal keratinocytes (product of Kurabo Industries Ltd.) were subjected to culture by means of a customary method by use of a KGM medium which had been prepared through the following procedure: MCDB153IK (product of Kyokuto Pharmaceutical Industrial Co., Ltd.) (10.93 g), N-2-hydroxyethylpiperazine-N′-2-ethanesulphonic acid (HEPES) (6.7 g), NaHCO3 (1.2 g), insulin (5 mg), hydrocortisone (0.5 mg), transferrin (10 mg), phosphorylethanolamine (14.1 mg), EGF (10 μg), penicillin (100 mg), and kanamycin (60 mg) were dissolved in purified water (1 L); the pH of the resultant solution was adjusted to 7.4 by use of NaOH; the resultant solution was subjected to filter sterilization; and bovine pituitary gland extract (product of Kyokuto Pharmaceutical Industrial Co., Ltd.) (55 mg) was added to the resultant solution immediately before use of the solution. […]
(§2) The fluorescence intensity was measured over time by means of a customary method by use of a fluorescence microplate reader (485 nm, 538 nm).
(§3) The concentration of intracellular calcium ions in the cells was calculated by use of the following formula. […]
Fmin: Fluorescence intensity of Fluo3-AM when EDTA is added and Ca^2+ is blocked (minimum fluorescence intensity)
Fmax: Fluorescence intensity of Fluo3-AM in the presence of excess Ca^2+ (breakage of cell membranes by a surfactant) (maximum fluorescence intensity) […]

[2] = tested on: P2X receptor; assay: Intracellular calcium ion concentration in cultured epidermal keratinocytes (Fluo3-AM fluorescence), P2X agonist/inhibitor; conditions: FIG. 2; for concentration of intracellular calcium ions in the keratinocytes: agonist solution (final concentration 10 μM) added to epidermal keratinocytes
Description: (a) Commercially available epidermal keratinocytes (product of Kurabo Industries Ltd.) were subjected to culture by means of a customary method by use of a KGM medium which had been prepared through the following procedure: MCDB153IK (product of Kyokuto Pharmaceutical Industrial Co., Ltd.) (10.93 g), N-2-hydroxyethylpiperazine-N′-2-ethanesulphonic acid (HEPES) (6.7 g), NaHCO3 (1.2 g), insulin (5 mg), hydrocortisone (0.5 mg), transferrin (10 mg), phosphorylethanolamine (14.1 mg), EGF (10 μg), penicillin (100 mg), and kanamycin (60 mg) were dissolved in purified water (1 L); the pH of the resultant solution was adjusted to 7.4 by use of NaOH; the resultant solution was subjected to filter sterilization; and bovine pituitary gland extract (product of Kyokuto Pharmaceutical Industrial Co., Ltd.) (55 mg) was added to the resultant solution immediately before use of the solution. On the day before measurement of calcium ions was carried out, the thus-cultured epidermal keratinocytes were inoculated into a 96-well plate (2×10^5 cells/well). On the following day, the aforementioned culture solution was removed from the well plate by use of a pipette such that the cells were not exfoliated from the wells. Subsequently, a balanced salt solution (BSS: an aqueous solution prepared by dissolving NaCl (150 mM), KCl (5 mM), CaCl2 (1.8 mM), NaH2PO4 (1.2 mM), MgCl2 (1.2 mM), D-glucose (10 mM), and HEPES (25 mM) in water, and adjusting the pH of the resultant solution to 7.4 by use of NaOH) and Fluo3-AM (product of Dainippon Pharmaceutical Co., Ltd.), which is a calcium-sensitive fluorescent dye, were added to the cultured epidermal keratinocytes (total amount of BSS and Fluo3-AM per well: […]), and incubation was carried out at 37° C. for 60 minutes, to thereby introduce the fluorescent dye into the cultured epidermal keratinocytes. […]
as §2, §3

[3] = target: T1, VR1 receptor (Homo sapiens, UniProt Q8NER1); assay: Intracellular calcium ion concentration in cultured epidermal keratinocytes (Fluo3-AM fluorescence), VR1 agonist/antagonist
T1 construct: epidermal keratinocytes were brought into contact with capsaicin, which is an agonist of a VR1 receptor; host or cells: cultured epidermal keratinocytes
T1 sequence (Q8NER1 whole entry): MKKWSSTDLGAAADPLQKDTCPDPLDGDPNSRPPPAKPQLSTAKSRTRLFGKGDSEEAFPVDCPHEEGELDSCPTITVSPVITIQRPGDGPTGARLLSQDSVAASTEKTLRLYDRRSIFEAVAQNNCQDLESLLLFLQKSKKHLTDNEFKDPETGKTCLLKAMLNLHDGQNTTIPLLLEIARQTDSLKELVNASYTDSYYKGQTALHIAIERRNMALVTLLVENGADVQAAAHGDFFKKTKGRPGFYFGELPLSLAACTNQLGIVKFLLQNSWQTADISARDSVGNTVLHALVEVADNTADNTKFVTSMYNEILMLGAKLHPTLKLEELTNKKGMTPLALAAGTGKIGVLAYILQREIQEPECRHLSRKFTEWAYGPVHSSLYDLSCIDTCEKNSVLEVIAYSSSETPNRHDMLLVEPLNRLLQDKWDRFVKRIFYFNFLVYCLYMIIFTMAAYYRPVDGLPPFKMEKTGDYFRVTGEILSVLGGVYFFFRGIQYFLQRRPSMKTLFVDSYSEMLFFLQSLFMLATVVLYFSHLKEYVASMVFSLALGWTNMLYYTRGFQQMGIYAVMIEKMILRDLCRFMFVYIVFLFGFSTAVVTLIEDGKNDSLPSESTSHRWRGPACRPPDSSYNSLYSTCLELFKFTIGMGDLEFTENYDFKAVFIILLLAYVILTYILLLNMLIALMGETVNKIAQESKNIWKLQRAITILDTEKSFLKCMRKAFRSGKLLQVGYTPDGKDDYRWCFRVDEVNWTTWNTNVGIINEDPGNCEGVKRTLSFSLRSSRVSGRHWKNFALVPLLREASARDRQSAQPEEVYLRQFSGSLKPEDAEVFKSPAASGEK
Description: as §1, with “solution. On the day before measurement of calcium ions was carried out, the thus-cultured epidermal keratinocytes were inoculated into a 96-well plate (2×10^5 cells/well).” for “solution.”
as §2, §3

Molecule: CC(O)C(=O)O (stereo not drawn) [lactic acid]
- concentration of intracellular calcium ions in the epidermal keratinocytes [1]: increased

Molecule: 2′,3′-o-(2,4,6-trinitrophenyl)adenosine 5′-triphosphate [TNP-ATP]
- increase in the concentration of intracellular calcium ions caused by αβ-me ATP ([2]; keratinocytes preliminarily treated with TNP-ATP (100 nM) for 10 minutes, then mixture of TNP-ATP and αβ-me ATP added): suppressed

Molecule: COc1cc(CNC(=O)CCCC/C=C/C(C)C)ccc1O [capsaicin]
- concentration of intracellular calcium ions in the keratinocytes ([3]; capsaicin solution (final concentration 100 nM to 10 μM) added to epidermal keratinocytes, FIG. 1A): significantly increased

Molecule: Nc1ncnc2c1ncn2[C@@H]1O[C@H](COP(=O)(O)OP(=O)(O)OP(=O)(O)O)[C@@H](O)[C@H]1O [ATP, adenosine 5′-triphosphate]
- concentration of intracellular calcium ions in the keratinocytes [2]: significantly increased

Molecule: Oc1cc2c(cc1O)CN(C(=S)NCCc1ccc(Cl)cc1)CCC2 [capsazepine]
- increase in the concentration of intracellular calcium ions caused by capsaicin ([3]; keratinocytes preliminarily treated with capsazepine for 10 minutes, then mixture of capsaicin and capsazepine added, FIG. 1B): suppressed

Molecule: Nc1ncnc2c1ncn2[C@@H]1O[C@H](COP(=O)(O)CP(=O)(O)OP(=O)(O)O)[C@@H](O)[C@H]1O [αβ-me ATP, αβ-methelene ATP]
- concentration of intracellular calcium ions in the keratinocytes [2]: significantly increased
